Values quoted from earlier work in patent publication US9655859B2, “Accordion pill comprising levodopa for an improved treatment of Parkinson's disease symptoms” (INTEC PHARMA LTD., priority 2010, dated 2017).

Target: T1, peripheral DOPA decarboxylase (Homo sapiens, UniProt P20711)
T1 construct: host or cells: endogenous enzyme of peripheral tissues in vivo
T1 sequence (P20711 1-480): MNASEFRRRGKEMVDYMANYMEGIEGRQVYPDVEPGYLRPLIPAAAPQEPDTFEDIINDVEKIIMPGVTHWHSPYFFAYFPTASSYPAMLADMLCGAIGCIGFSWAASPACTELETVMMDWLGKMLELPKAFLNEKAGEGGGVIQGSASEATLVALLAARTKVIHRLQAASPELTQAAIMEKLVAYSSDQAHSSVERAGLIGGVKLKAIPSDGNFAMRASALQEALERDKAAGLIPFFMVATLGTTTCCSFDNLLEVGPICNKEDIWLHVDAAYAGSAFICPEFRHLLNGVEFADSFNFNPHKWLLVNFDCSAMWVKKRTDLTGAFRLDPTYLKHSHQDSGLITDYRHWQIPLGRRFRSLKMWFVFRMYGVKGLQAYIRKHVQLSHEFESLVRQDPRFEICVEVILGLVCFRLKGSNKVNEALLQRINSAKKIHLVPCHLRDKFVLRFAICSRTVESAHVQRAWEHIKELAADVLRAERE
Details: studies cited

carbidopa amount saturating peripheral DOPA decarboxylase: 70 to 100 mg a day
Compound: C[C@@](Cc1ccc(O)c(O)c1)(NN)C(=O)O [carbidopa]
